Biological target: IRAK4 (Homo sapiens (Human), UniProt Q9NWZ3)
Assay: IRAK-4 AlphaScreen biochemical kinase assay
Settings: 1 nM IRAK4, 1 mM ATP, 3.5 h at RT
Procedure, shortened: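 AlphaScreen read-out: streptavidin beads bind the biotinylated peptide and protein A beads bind the anti-phosphothreonine antibody, so energy transfer reports phosphorylation of the peptide. The kinase is human IRAK-4.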

IRAK4, sequence (Q9NWZ3 whole entry, species assumed): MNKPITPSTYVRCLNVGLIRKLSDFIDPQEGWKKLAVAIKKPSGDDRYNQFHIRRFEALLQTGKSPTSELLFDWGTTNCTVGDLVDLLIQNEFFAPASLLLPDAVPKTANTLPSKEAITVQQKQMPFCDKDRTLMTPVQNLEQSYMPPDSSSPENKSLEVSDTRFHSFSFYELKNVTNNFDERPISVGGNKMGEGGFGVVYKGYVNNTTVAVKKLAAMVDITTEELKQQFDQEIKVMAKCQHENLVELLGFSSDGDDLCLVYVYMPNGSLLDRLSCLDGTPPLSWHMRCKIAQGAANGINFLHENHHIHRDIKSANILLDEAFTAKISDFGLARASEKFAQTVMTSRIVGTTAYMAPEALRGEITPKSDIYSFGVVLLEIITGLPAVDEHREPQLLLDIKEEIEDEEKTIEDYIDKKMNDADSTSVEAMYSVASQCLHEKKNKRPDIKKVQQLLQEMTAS

IC50 [nM] | Molecule
< 100 | CC[C@H](N)c1cccc(-c2cc(OCCOC)c3cnn(-c4cncc(CO)n4)c3c2)n1 [Example 482, (S)-(6-(6-(6-(1-aminopropyl)pyridin-2-yl)-4-(2-methoxyethoxy)-1H-indazol-1-yl)pyrazin-2-yl)methanol]
1000 to 10000 | C[C@H](N)c1cccc(-c2ccc3cnn(-c4cccc(C(=O)O)n4)c3c2)n1 [Example 472, 6-{6-[6-((S)-1-Amino-ethyl)-pyridin-2-yl]-indazol-1-yl}-pyridine-2-carboxylic acid]
< 100 | COc1cc(-c2cccc([C@@H](N)CCCO)n2)cc2c1cnn2-c1cccc(CO)n1 [Example 409, (S)-4-amino-4-(6-(1-(6-(hydroxymethyl)pyridin-2-yl)-4-methoxy-1H-indazol-6-yl)pyridin-2-yl)butan-1-ol]
< 100 | CC(N)c1cc(N)cc(-c2ccc3cnn(-c4cccc(C(F)(F)F)n4)c3c2)n1 (stereo not drawn) [Example 270, 2-(1-aminoethyl)-6-(1-(6-(trifluoromethyl)pyridin-2-yl)-1H-indazol-6-yl)pyridin-4-amine]
< 100 | CCC[C@@H](N)c1nccc(-c2ccc3cnn(-c4cccc(CO)n4)c3c2)n1 [Example 406, (R)-(6-(6-(2-(1-aminobutyl)pyrimidin-4-yl)-1H-indazol-1-yl)pyridin-2-yl)methanol]
< 100 | C[C@H](N)c1cccc(-c2cc(-n3cccn3)c3cnn(-c4cccc(CO)n4)c3c2)n1 [Example 352, (S)-(6-(6-(6-(1-aminoethyl)pyridin-2-yl)-4-(1H-pyrazol-1-yl)-1H-indazol-1-yl)pyridin-2-yl)methanol]
1000 to 10000 | CCC[C@H](N)c1cccc(-c2cc(C#CC(C)(C)O)c3cnn(-c4cccc(CO)n4)c3c2)n1 [Example 462, (S)-4-(6-(6-(1-aminobutyl)pyridin-2-yl)-1-(6-(hydroxymethyl)pyridin-2-yl)-1H-indazol-4-yl)-2-methylbut-3-yn-2-ol]
< 100 | CCOc1cc(-c2cccc([C@@H](N)CCCO)n2)cc2c1cnn2-c1cccc(CO)n1 [Example 410, (S)-4-amino-4-(6-(4-ethoxy-1-(6-(hydroxymethyl)pyridin-2-yl)-1H-indazol-6-yl)pyridin-2-yl)butan-1-ol]
100 to 1000 | Cc1cccc(-n2ncc3ccc(-c4cccc(CCN)n4)cc32)n1 [Example 254, 2-(6-(1-(6-methylpyridin-2-yl)-1H-indazol-6-yl)pyridin-2-yl)ethanamine]
100 to 1000 | Cc1cccc(-n2ncc3c(OCC4CC4)cc(-c4cccc(C(C)N)n4)cc32)n1 (stereo not drawn) [Example 251]
100 to 1000 | Cc1cccc(-n2ncc3ccc(-c4cncc(N(C)C)c4)cc32)n1 [Example 202, N,N-dimethyl-5-(1-(6-methylpyridin-2-yl)-1H-indazol-6-yl)pyridin-3-amine]
< 100 | CCC[C@@H](N)c1ccnc(-c2cc(OCC)c3cnn(-c4cccc(CO)n4)c3c2)n1 [Example 584, (R)-(6-(6-(4-(1-aminobutyl)pyrimidin-2-yl)-4-ethoxy-1H-indazol-1-yl)pyridin-2-yl)methanol]
< 100 | Cc1cccc(-n2ncc3ccc(-c4csc(C(C)N)n4)cc32)n1 (stereo not drawn) [Example 310, 1-(4-(1-(6-methylpyridin-2-yl)-1H-indazol-6-yl)thiazol-2-yl)ethanamine]
< 100 | CCC[C@H](N)c1cccc(-c2cc(OCCO)c3cnn(-c4cccc(CO)n4)c3c2)n1 [Example 426, (S)-2-((6-(6-(1-aminobutyl)pyridin-2-yl)-1-(6-(hydroxymethyl)pyridin-2-yl)-1H-indazol-4-yl)oxy)ethanol]
< 100 | CC1(N)CCCc2ccc(-c3ccc4cnn(-c5cccc(CO)n5)c4c3)nc21 (stereo not drawn) [Example 420, (6-(6-(8-amino-8-methyl-5,6,7,8-tetrahydroquinolin-2-yl)-1H-indazol-1-yl)pyridin-2-yl)methanol]
100 to 1000 | Cc1cccc(-n2ncc3ccc(-c4cccc(C(N)CC(=O)O)n4)cc32)n1 (stereo not drawn) [Example 260, 3-amino-3-(6-(1-(6-methylpyridin-2-yl)-1H-indazol-6-yl)pyridin-2-yl)propanoic acid]
< 100 | CC(N)c1cccc(-c2ccc3cnn(-c4cccc(C(C)(C)O)n4)c3c2)n1 (stereo not drawn) [Example 278, 2-(6-(6-(6-(1-aminoethyl)pyridin-2-yl)-1H-indazol-1-yl)pyridin-2-yl)propan-2-ol]
> 10000 | Nc1cncc(-c2ccc3cnn(-c4cccc(C5CCCC5)n4)c3c2)c1 [Example 205, 5-(1-(6-cyclopentylpyridin-2-yl)-1H-indazol-6-yl)pyridin-3-amine]
< 100 | Cc1cccc(-n2ncc3ccc(-c4cccc(C5(C(N)=O)CCC5)n4)cc32)n1 [Example 312, 1-(6-(1-(6-methylpyridin-2-yl)-1H-indazol-6-yl)pyridin-2-yl)cyclobutanecarboxamide]
< 100 | CC(N)c1cccc(-c2ccc3cnc(-c4cccc(CO)n4)n3c2)n1 (stereo not drawn) [Example 302, (6-(6-(6-(1-aminoethyl)pyridin-2-yl)imidazo[1,5-a]pyridin-3-yl)pyridin-2-yl)methanol]
100 to 1000 | CC(N)c1cccc(-c2ccc3cnn(-c4cccc(CN)n4)c3c2)n1 (stereo not drawn) [Example 287, 1-(6-(1-(6-(aminomethyl)pyridin-2-yl)-1H-indazol-6-yl)pyridin-2-yl)ethanamine]
> 10000 | C/C(=N\O)c1cccc(-c2ccc3cnn(-c4ccccn4)c3c2)n1 [Example 230, (E)-1-(6-(1-(pyridin-2-yl)-1H-indazol-6-yl)pyridin-2-yl)ethanone oxime]
< 100 | CCC[C@H](N)c1cccc(-c2cc(OCC(C)(C)O)c3cnn(-c4cccc(CO)n4)c3c2)n1 [Example 471, (S)-1-((6-(6-(1-aminobutyl)pyridin-2-yl)-1-(6-(hydroxymethyl)pyridin-2-yl)-1H-indazol-4-yl)oxy)-2-methylpropan-2-ol]
100 to 1000 | Cc1cccc(-n2ncc3ccc(-c4cn(C)cn4)cc32)n1 [Example 323, 6-(1-methyl-1H-imidazol-4-yl)-1-(6-methylpyridin-2-yl)-1H-indazole]
1000 to 10000 | COC(=O)c1nc(-c2ccc3cnn(-c4cccc(C)n4)c3c2)ccc1N [Example 243, methyl 3-amino-6-(1-(6-methylpyridin-2-yl)-1H-indazol-6-yl)picolinate]

Second part, the molecule before the results:

Molecule | IC50 [nM]
Cc1cccc(-n2ncc3ccc(-c4cc(N)cnc4O)cc32)n1 [Example 11, 5-amino-3-(1-(6-methylpyridin-2-yl)-1H-indazol-6-yl)pyridin-2-ol] | 1000 to 10000
COCCOc1cc(-c2cccc([C@@H](N)C(C)F)n2)cc2c1cnn2-c1cccc(CO)n1 (stereo partly drawn) [Example 433, (6-(6-(6-((1R)-1-amino-2-fluoropropyl)pyridin-2-yl)-4-(2-methoxyethoxy)-1H-indazol-1-yl)pyridin-2-yl)methanol] | < 100
Cc1cccc(-n2ncc3ccc(-c4cccc(C(C)N)n4)cc32)n1 (stereo not drawn) [Example 55, 1-(6-(1-(6-methylpyridin-2-yl)-1H-indazol-6-yl)pyridin-2-yl)ethanamine] | < 100
NCCNC(=O)c1cccc(-n2ncc3ccc(-c4cncc(N)c4)cc32)n1 [Example 72, N-(2-aminoethyl)-6-(6-(5-aminopyridin-3-yl)-1H-indazol-1-yl)picolinamide] | < 100
Nc1cccc(-c2ccc3cnn(-c4ccccn4)c3c2)c1 [Example 21, 3-(1-(pyridin-2-yl)-1H-indazol-6-yl)aniline] | 100 to 1000
CS(=O)(=O)CCNC(=O)c1cccc(-n2ncc3ccc(-c4cncc(N)c4)cc32)n1 [Example 74, 6-(6-(5-aminopyridin-3-yl)-1H-indazol-1-yl)-N-(2-(methylsulfonyl)ethyl)picolinamide] | 1000 to 10000
COC(=O)c1cc(-c2cncc(N)c2)cc2c1cnn2-c1cccc(C(F)(F)F)n1 [Example 50, methyl 6-(5-aminopyridin-3-yl)-1-(6-(trifluoromethyl)pyridin-2-yl)-1H-indazole-4-carboxylate] | < 100
Nc1cncc(-c2ccc3cnn(-c4cccc(C5CCC5)n4)c3c2)c1 [Example 28, 5-(1-(6-cyclobutylpyridin-2-yl)-1H-indazol-6-yl)pyridin-3-amine] | 1000 to 10000
CNC(=O)c1cc(-c2cncc(N)c2)cc2c1cnn2-c1cccc(C(F)(F)F)n1 [Example 61, 6-(5-aminopyridin-3-yl)-N-methyl-1-(6-(trifluoromethyl)pyridin-2-yl)-1H-indazole-4-carboxamide] | < 100
1-(6-methylpyridin-2-yl)-1H-pyrazolo[4,3-c]pyridin-7-amine [Example 200] | < 100
NC(=O)c1cccc(-n2ncc3ccc(-c4cncc(N)c4)cc32)n1 [Example 31, 6-(6-(5-aminopyridin-3-yl)-1H-indazol-1-yl)picolinamide] | < 100
[2H][C@](N)(CCC)c1cccc(-c2ccc3cnn(-c4cccc(CO)n4)c3c2)n1 [Example 419, deutero (S)-(6-(6-(6-(1-aminobutyl)pyridin-2-yl)-1H-indazol-1-yl)pyridin-2-yl)methanol] | < 100
CNc1cc(-c2cccc(C(C)N)n2)cc2c1cnn2-c1cccc(C)n1 (stereo not drawn) [Example 101, 6-(6-(1-aminoethyl)pyridin-2-yl)-N-methyl-1-(6-methylpyridin-2-yl)-1H-indazol-4-amine] | < 100
Nc1cncc(-c2cc(C(=O)O)c3cnn(-c4cccc(C(F)(F)F)n4)c3c2)c1 [Example 51, 6-(5-aminopyridin-3-yl)-1-(6-(trifluoromethyl)pyridin-2-yl)-1H-indazole-4-carboxylic acid] | < 100
CCC(N)c1cccc(-c2ccc3cnn(-c4cccc(C(F)(F)F)n4)c3c2)n1 (stereo not drawn) [Example 127, 1-(6-(1-(6-(trifluoromethyl)pyridin-2-yl)-1H-indazol-6-yl)pyridin-2-yl)propan-1-amine] | < 100
CNC(=O)c1cccc(-n2ncc3ccc(-c4cncc(N)c4)cc32)n1 [Example 32, 6-(6-(5-aminopyridin-3-yl)-1H-indazol-1-yl)-N-methylpicolinamide] | 100 to 1000
Cc1ccnc(-n2ncc3ccc(-c4cncc(N)c4)cc32)c1 [Example 39, 5-(1-(4-methylpyridin-2-yl)-1H-indazol-6-yl)pyridin-3-amine] | 100 to 1000
